Where a name gives a salt, the structure may show the parent alone.

Take `COc1cc2c(cc1CNC1CCCNC1c1ccccc1)NC(=O)CC2` (stereo not drawn) (as salt: HCl) [Example 1, 6-Methoxy-7-[(2-phenyl-piperidin-3-ylamino)-methyl]-3,4-dihydro-1H-quinolin-2-one]: the melting point (usually the temperature of the solid-liquid transition) lay in the range of 233 to 235 °C. The molecule `CCN1C(=O)CCc2cc(OC)c(CNC3CCCNC3c3ccccc3)cc21` (stereo not drawn) (as salt: hydrochloride) [Example 2, 1-Ethyl-6-methoxy-7-[(2-phenyl-piperidin-3-ylamino)-methyl]-3,4-dihydro-1H-quinolin-2-one] had a melting point of 253 to 255 °C. In the case of `COc1cc2c(cc1CNC1CCCNC1c1ccccc1)N(S(C)(=O)=O)C(=O)CC2` (stereo not drawn) (as salt: hydrochloride) [Example 3, 1-Methanesulfonyl-6-methoxy-7-[(2-phenyl-piperidin-3-ylamino)-methyl]-3,4-dihydro-1H-quinolin-2-one] it was 237 to 241 °C; in that of `COc1cc2c(cc1CNC1CCCNC1c1ccccc1)N(C)C(=O)CC2(C)C` (stereo not drawn) (as salt: hydrochloride) [Example 4, 6-Methoxy-1,4,4-trimethyl-7-[(2-phenyl-piperidin-3-ylamino)-methyl]-3,4-dihydro-1H-quinolin-2-one], greater than 280 °C; in that of `COc1cc2c(c(F)c1CNC1CCCNC1c1ccccc1)N(C)C(=O)CC2(C)C` (stereo not drawn) (as salt: hydrochloride) [Example 5, 8-Fluoro-6-methoxy-1,4,4-trimethyl-7-[(2-phenyl-piperidin-3-ylamino)-methyl]-3,4-dihydro-1H-quinolin-2-one], greater than 270 °C. In the case of `COc1cc2c(cc1CN[C@H]1CCCN(C(=O)C(F)(F)F)[C@H]1c1ccccc1)N(C)C(=O)CC2` (as salt: hydrochloride) [Example 10, 6-Methoxy-1-methyl-7-[(2S,3S)-(2-phenyl-1-trifluoroacetyl-piperidin-3-ylamino)-methyl]-3,4-dihydro-1H-quinolin-2-one] it was 222 to 224 °C (dec.); in that of `COc1cc2c(cc1CN[C@H]1CCCN(C)[C@H]1c1ccccc1)C(C)(C)C(=O)N2C` (as salt: hydrochloride) [Example 14, 5-[{(2S,3S)-1-Methyl-2-phenyl-piperidin-3-ylamino}-methyl]-6-methoxy-1,3,3-trimethyl-1,3-dihydro-indol-2-one], > 250 °C (dec.).

As for `COc1cc2c(cc1CN[C@H]1CCCN(Cc3n[nH]c(=O)[nH]3)[C@H]1c1ccccc1)C(C)(C)C(=O)N2C` [Example 18, 6-Methoxy-1,3,3-trimethyl-5-{[(2S,3S)-1-(5-oxo-4,5-dihydro-1H-[1,2,4]triazol-3-ylmethyl)-2-phenyl-piperidin-3-ylamino]-methyl}-1,3-dihydro-indol-2-one], the melting point is > 250 °C (dec.). The value for `CCC1CCC(NCc2cc3c(cc2OC)C2CC2C(=O)N3C)C(c2ccccc2)N1` (stereo not drawn) [Example 85, 5-[(6-Ethyl-2-phenyl-piperidin-3-ylamino)-methyl]-6-methoxy-3-methyl-1,1a,3,7b-tetrahydro-3-aza-cyclopropa[a]naphthalen-2-one] was 231 to 234 °C (dec.).

The record behind these values is patent US7119207B2, “Benzoamide piperidine containing compounds and related compounds” (Pfizer INC, priority 2000, dated 2006).
